Measurements published in patent US20230357240A1, “NOVEL N-HETEROCYCLIC BET BROMODOMAIN INHIBITOR, AND PREPARATION METHOD THEREOF AND MEDICAL USE THEREOF” (Chengdu Easton Biopharmaceuticals Co., Ltd., priority 2020, published 2023).
Where two headings read alike, the source gives them in different places.

Assay: Pharmacokinetic test in SD rats (plasma drug concentration by LC/MS/MS)
Type: in vivo
Conditions: rat, 2 mg/kg; for AUC(0-t): read-out: Area under the curve AUClast; for half-life: read-out: Half life T1/2 (converted); for Cmax: read-out: Peak concentration Cmax; for MRT: read-out: Retention time MRT; for Tmax: read-out: Time to peak Tmax
Method: EXAMPLE 10 Pharmacokinetic Test of the Compound of the Present Application
SD rats were used as test animals. After gavage administration or tail vein injection of the compound of the present application to the rats, plasma drug concentrations were measured by the LC/MS/MS method at different moments, and pharmacokinetic features of the compound of the present application in the rats was studied.
Source of SD rats: Chengdu Dashuo Experimental Animal Co., Ltd.
Method of administration: single gavage administration and single tail vein injection
Dosage and concentration: 2 mg/kg rat body weight, 0.5 mg/mL
Formulation: 20% β-cyclodextrin solution
Sampling points: 5 min, 15 min, 30 min, 45 min, 1 h, 1.5 h, 2 h, 4 h, 5 h, 6 h, 7 h, 8 h, 9 h and 24 h
Standard curve preparation and sample treatment: 10 mg of the sample to be tested was accurately weighed and added into 1 mL of DMSO for dissolution, and the mixture was used as a stock solution. The stock solution was diluted with 50% (v/v) methanol aqueous solution to prepare standard working solutions having a concentration of 10, 20, 50, 100, 200, 500, 1000 and 2000 ng/mL, respectively. 5 μL of each of the standard working solutions was added to 45 μL of blank rat plasma to prepare standard samples containing the analyte at concentrations of 1.00, 2.00, 5.00, 10.00, 20.00, 50.00, 100.00 and 200.00 ng/mL, 200 μL of methanol (containing internal standard substance: 5 ng/mL memantine hydrochloride) was added to each standard sample, the standard samples were oscillated for 3 minutes and centrifuged at 12000 rpm at 4° C. for 10 minutes, and […] of the supernatant was collected for LC-MS/MS analysis. The test results were calculated by Analyst® software.
Preparation of quality control solution and sample treatment: 10 mg of the sample to be tested was accurately weighed and added into 1 mL of DMSO for dissolution, and the mixture was used as a stock solution. The stock solution was diluted with 50% (v/v) methanol aqueous solution to prepare quality control working solutions having a concentration of 30, 600 and 1600 ng/mL, respectively. 5 μL of each of the quality control working solutions was added to 45 μL of blank rat plasma to prepare quality control samples containing the analyte at concentrations of 3.00, 60.00 and 160.00 ng/mL, 200 μL of methanol (containing internal standard substance: 5 ng/mL memantine hydrochloride) was added to each standard sample, the standard samples were oscillated for 3 minutes and centrifuged at 12000 rpm at 4° C. for 10 minutes, and […] of the supernatant was collected for LC-MS/MS analysis. The test results were calculated by Analyst® software.

## CCNC(=O)c1cc2c(-c3sc(C(C)(C)O)cc3N3CCc4ccccc43)cn(C)c(=O)c2[nH]1 [Compound 1, N-ethyl-4-(5-(2-hydroxypropyl-2-yl)-3-(indolin-1-yl)thiophen-2-yl)-6-methyl-7-oxo-6,7-dihydro-1H-pyrrolo[2,3-c]pyridine-2-carboxamide]
iv, tail vein injection
  AUC(0-t): 327 ng·h/mL
  half-life: 61.8 min
  Cmax: 276 ng/mL
  MRT: 87 min
  Tmax: 4.8 min
po, gavage
  AUC(0-t): 250 ng·h/mL
  half-life: 49.8 min
  Cmax: 143 ng/mL
  MRT: 82.2 min
  Tmax: 17.4 min
